Experimental findings from patent publication US9850251B2, “Imidazole derivative used as antiviral agent and use therof in preparation of medicament” (priority 2013, dated 2017) are described below.

Some results are limits rather than exact numbers.

Data set [1] in a line: RSV long CPE assay (cytopathic effect assay), CC50 toxicity in vitro. The class given is cell-based. Conditions: human, Hep2 cells, CCK-8 readout, top concentration 100 μM. On the procedure:
(§1) Detect EC50 and CC50 values of anti RSV respiratory tract virus compounds through the cytopathic effect assay.
(§2) The cell plate was centrifugated (300 rpm) to make the cells adherent to the wall, placed into a 37° C., 5% CO2 incubator overnight.
(§3) 1) the compound in 100% DMSO underwent a semi logarithmic dilution, then was added to the cell plate with a Echo liquid handler. Ensure that the final concentration of DMSO was 1%;
(§4) 2) Cell-control hole: no compound and viruse were added; virus-control hole: no compound was added.
(§5) 2) add CCK-8 (Dojindo-CK04-20, 6 μL/hole) to 384 well plate with Multidrop® automatic liquid distributor;
(§6) 3) place the plate at a 37° C., 5% CO2 culture incubator for 3˜4 h, read the absorbance value with SPECTRA max 340PC_Molecular device at 450 nm and 630 nm;
Background: Damage to the host cells serves as the signal in cytopathic effect assays.

The test system of data set [2] is RSV respiratory tract virus (A long strain). As to the kind of experiment: RSV long CPE assay (cytopathic effect assay), EC50. The note with it: human respiratory syncytial virus, HEp-2, 120 h; Hep2 cells infected with RSV A long strain, 5 days, CCK-8 readout. The class given is cell-based. On the procedure: as §1
Virus strain: RSV respiratory tract virus (A long strain)
as §2, §3, §4
dilute RSV viruses to 100 TCID50/30 μL with medium cultured with 4° C. cells, and then add the diluted viruses to a cell plate (30 μL/hole) with Multidrop® automatic liquid distributor, and then placed into a 37° C., 5% CO2 culture incubator for 5 days.
1) after 5 days, observe the pathological change in each hole.
as §5, §6

As usually defined, the CC50 is the concentration giving 50% cytotoxicity. High values mean lower toxicity to the cells, low ones greater toxicity to the cells. One may read the EC50 as the concentration needed to bring the measured effect to its halfway point. Regarding `O=C1N(Cc2nc3c(n2CCCC(F)(F)F)CCCC3)c2ccccc2C12CN(S(=O)(=O)C1CC1)C2` [Embodiment 98, 1-(Cyclopropylsulfonyl)-1′-((1-(4,4,4-trifluorobutyl)-4,5,6,7-tetrahydro-1H-benzo[d]imidazol-2-yl)methyl)spiro[azetidine-3,3′-indoline]-2′-one], the CC50 at 5 days in data set [1] was > 100000 nM. The half-maximal effective concentration (EC50) in data set [2] is < 100 nM.

For `CC(C)S(=O)(=O)N1CC2(C1)C(=O)N(Cc1nc3c(n1CCCC(F)(F)F)CCCC3)c1ccccc12` [Embodiment 99, 1-(Isopropylsulfonyl)-1′-((1-(4,4,4-trifluorobutyl)-4,5,6,7-tetrahydro-1H-benzo[d]imidazol-2-yl)methyl)spiro[azetidine-3,3′-indoline]-2′-one], in data set [1], the CC50 at 5 days is > 100000 nM. In addition, the EC50 in data set [2] was < 100 nM.

Turning to `Cc1nc(CN2C(=O)C3(CN(C(=O)OC(C)C)C3)c3ccccc32)n(CCCCO)c1C` [Embodiment 100, Isopropyl 1′-((1-(4-hydroxybutyl)-4,5-dimethyl-1H-imidazol-2-yl)methyl)-2′-oxospiro[azetidine-3,3′-indoline]-1-carboxylate], in data set [1], the 50% cytotoxic concentration (CC50) at 5 days is > 100000 nM. Besides, the 50% effective concentration (EC50) in data set [2] was < 100 nM.

For `CC(C)OC(=O)N1CC2(C1)C(=O)N(Cc1nc3c(n1CCCC(F)(F)F)CCC3)c1ccccc12` [Embodiment 102, Isopropyl 2′-oxo-1′-((1-(4,4,4-trifluorobutyl)-1,4,5,6-tetrahydrocyclopenta[d]imidazol-2-yl)methyl)spiro[azetidine-3,3′-indoline]-1-carboxylate], the CC50 at 5 days in data set [1] was > 100000 nM. Also, in data set [2], the 50% effective concentration (EC50) is < 100 nM.

In the case of `CC(C)OC(=O)N1CC2(C1)C(=O)N(Cc1nc3c(n1CCCCO)CCC3)c1ccccc12` [Embodiment 103, Isopropyl 1′-((1-(4-hydroxybutyl)-1,4,5,6-tetrahydrocyclopenta[d]imidazol-2-yl)methyl)-2′-oxospiro[azetidine-3,3′-indoline]-1-carboxylate], the CC50 at 5 days in data set [1] was > 100000 nM. Also, the 50% effective concentration (EC50) in data set [2] was < 100 nM.

Regarding `CCOC(=O)N1CC2(C1)C(=O)N(Cc1nc3c(n1CCCC(F)(F)F)CCC3)c1ccccc12` [Embodiment 104, Ethyl 2′-oxo-1′-((1-(4,4,4-trifluorobutyl)-1,4,5,6-tetrahydrocyclopenta[d]imidazol-2-yl)methyl)spiro[azetidine-3,3′-indoline]-1-carboxylate], the half-maximal cytotoxic concentration (CC50) at 5 days in data set [1] was > 100000 nM. Besides, in data set [2], the EC50 is < 100 nM.

For the molecule `CC(C)C(=O)N1CC2(C1)C(=O)N(Cc1nc3c(n1CCCC(F)(F)F)CCC3)c1ccccc12` [Embodiment 105, 1-Isobutyryl-1′-((1-(4,4,4-trifluorobutyl)-1,4,5,6-tetrahydrocyclopenta[d]imidazol-2-yl)methyl)spiro[azetidine-3,3′-indoline]-2′-one], the CC50 at 5 days in data set [1] is > 100000 nM. Also, the EC50 in data set [2] is < 100 nM.

Take `CS(=O)(=O)N1CC2(C1)C(=O)N(Cc1nc3c(n1CCCC(F)(F)F)CCC3)c1ccccc12` [Embodiment 106, 1-(Methylsulfonyl)-1′-((1-(4,4,4-trifluorobutyl)-1,4,5,6-tetrahydrocyclopenta[d]imidazol-2-yl)methyl)spiro[azetidine-3,3′-indoline]-2′-one]: the CC50 at 5 days in data set [1] is > 100000 nM. Moreover, the half-maximal effective concentration (EC50) in data set [2] was < 100 nM.

In the case of `C=CCCn1c(CN2C(=O)C3(CN(C(=O)OC(C)C)C3)c3ccc(Cl)cc32)nc2c1CCCC2` [Embodiment 107, Isopropyl 1′-((1-(but-3-en-1-yl)-4,5,6,7-tetrahydro-1H-benzo[d]imidazol-2-yl)methyl)-6′-chloro-2′-oxospiro[azetidine-3,3′-indoline]-1-carboxylate], the CC50 at 5 days in data set [1] is > 100000 nM. Besides, the EC50 in data set [2] is < 100 nM.

Take `CC(C)OC(=O)N1CC2(C1)C(=O)N(Cc1nc3c(n1CCCC(F)(F)F)C(=O)CCC3)c1ccccc12` [Embodiment 108, Isopropyl 2′-oxo-1′-((7-oxo-1-(4,4,4-trifluorobutyl)-4,5,6,7-tetrahydro-1H-benzo[d]imidazol-2-yl)methyl)spiro[azetidine-3,3′-indoline]-1-carboxylate]: the half-maximal cytotoxic concentration (CC50) at 5 days in data set [1] was > 100000 nM. The same molecule showed an EC50 in data set [2] of 100 to 1000 nM.
